Data taken from PMC9953701 (Biomedicines, 2023).
Values after ≈ are worked out from the molar mass of the structure shown. Like-named read-outs stand apart in the source and are kept apart here. Positions of bridges follow the written chain, without caps; N, C: chain ends. Residues, ends and D or L forms follow the SMILES beside them.

Key:
[1] = test system: Salmonella enterica serovar Typhimurium DA6192 wild type and LL-37-resistant mutants (waaY, phoP); test: MIC against LL-37-resistant strains in buffer conditions; assay type: cell-based; set-up: unit not given here; settings: 20 mM sodium phosphate buffer with 0.1% TSB, 16 to 20 h, 37 °C
Procedure: (§1) The LL-37 resistant mutants (DA22427 and DA23307) used in this study were derived from Salmonella enterica serovar Typhimurium DA6192, wild-type and cyclotides-resistant mutants (DA54114 and DA57107) were derived from E. coli MG1655 (wild type) and were kindly provided by Department of Medical Biochemistry and Microbiology, Uppsala University.
(§2) MIC measurements were performed in 20 mM sodium phosphate buffer (PBS), supplemented with 0.1% TSB in 96-well plates (round bottom, Nunc A/S, Roskilde, Denmark) in a total volume of 100 µL. The overnight cultures were diluted 5 × 10^5 CFU/mL in the same medium and 90 µL was transferred into the plates containing 10 µL of 2-fold diluted peptides. […] At least two independent experiments were performed with two technical replicates. In cyclotides, resistant mutant average MIC was reported.

[2] = test system: Pseudomonas aeruginosa ATCC 27853; assay type: cell-based; settings: ATCC 27853, 24 h
Text: (§3) The three bacterial strains—Escherichia coli ATCC 25922, Pseudomonas aeruginosa ATCC 27853, and Staphylococcus aureus ATCC 29213—as well as the fungal strain Candida albicans ATCC 90028 were provided by the Department of Clinical Bacteriology, Lund University Hospital. Bacillus subtilis CCUG 163B^T and Bacillus cereus CCUG 7414^T were obtained from the Department of Molecular Sciences, Swedish University of Agricultural Sciences.
(§4) The standard broth microdilution assay was utilized to assess the MIC of designed peptides according to the guidelines of the Clinical and Laboratory Standards Institute (CLSI). Briefly, bacteria were grown in unbuffered Mueller–Hinton Broth (MHB, VWR International, Leuven, Belgium) as well as buffered (containing 50 mM NaHCO3) medium to the mid-logarithmic phase and were quantified by OD600. The bacterial suspension was diluted in the same medium to reach a final density of 1 × 10^6 colony-forming unit per milliliter (CFU/mL). A volume of 50 µL of the bacterial suspension was added to 96-well plates containing 50 µL of MHB in the absence (viability control) or the presence of the peptides at different concentrations (0.625–80 µM). […] MIC values were derived from 3 sets of independent experiments with different bacterial cultures.

[3] = test system: Staphylococcus aureus ATCC 29213; assay type: cell-based; settings: ATCC 29213, 24 h
Text: as §3, §4

[4] = test system: Bacillus subtilis CCUG 163BT; assay type: cell-based; settings: CCUG 163, 24 h
Text: as §3, §4

[5] = test system: Escherichia coli ATCC 25922; assay type: cell-based; settings: ATCC 25922, 24 h
Text: as §3, §4

[6] = test system: Bacillus cereus CCUG 7414T; assay type: cell-based; settings: CCUG 7414, 24 h
Text: as §3, §4

[7] = test system: Bacillus subtilis CCUG 163BT; assay type: cell-based; settings: CCUG 163, 5 h
Procedure: as §3
(§5) Antimicrobial activities of the peptides were evaluated using the two-step microdilution assay, which is designed for testing AMPs without activity-inhibiting components. Briefly, bacteria were grown to the mid-logarithmic phase at 37 °C in 3% (w/v) tryptic soy broth (TSB) (Merck KGaA, Darmstadt, Germany). The microbial culture was washed twice by centrifugation and resuspension in 10 mM Tris buffer (pH 7.4 at 37 °C, adjusted by HCl). The microbial suspension was quantified by OD600, diluted, and transferred to 96-well untreated polystyrene microplates prepared with 2-fold serial dilutions of the peptides using 50,000 bacteria per well (all dilutions in Tris buffer). These were incubated for 5 h at 37 °C, after which 5 µL of 20% (w/v) TSB was added to each well and the microplates were re-incubated for an additional 6–12 h (depending on the growth rate of each organism). All MICs presented are the medians from triplicate experiments performed independently.

[8] = test system: Pseudomonas aeruginosa ATCC 27853; assay type: cell-based; settings: P. aeruginosa; Control: two-step microdilution assay in Tris buffer 10 mM without salts; median of triplicates
Procedure: as §3, §5
(§6) A two-step assay was supplemented with a physiological concentration of salts and diluted human serum and the MIC of the peptides was evaluated as in 4.6.

[9] = test system: Staphylococcus aureus ATCC 29213; assay type: cell-based; settings: S. aureus; Control: two-step microdilution assay in Tris buffer 10 mM without salts; median of triplicates
Procedure: as §3, §5, §6

[10] = test system: Candida albicans ATCC 90028; assay type: cell-based; settings: C. albicans; Control: two-step microdilution assay in Tris buffer 10 mM without salts; median of triplicates
Procedure: as §3, §5, §6

[11] = molecular target: T1, aureolysin from S. aureus (Staphylococcus aureus, UniProt P81177); test: Stability in the presence of the protease aureolysin; assay type: in vitro ADME; settings: peptide:enzyme 200:1, 37 °C, RP-HPLC-MS
T1 construct: purchased
T1 sequence (P81177 209-509): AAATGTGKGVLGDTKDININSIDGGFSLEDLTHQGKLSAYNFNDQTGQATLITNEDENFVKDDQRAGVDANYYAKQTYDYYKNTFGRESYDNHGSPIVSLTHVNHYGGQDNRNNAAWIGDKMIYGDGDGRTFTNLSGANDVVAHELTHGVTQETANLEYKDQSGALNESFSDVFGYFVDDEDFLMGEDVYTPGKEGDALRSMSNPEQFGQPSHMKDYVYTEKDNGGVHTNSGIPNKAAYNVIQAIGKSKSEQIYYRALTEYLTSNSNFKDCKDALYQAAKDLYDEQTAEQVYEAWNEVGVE
Procedure: Peptide stability was also assayed in commercially available Gram-positive, S. aureus protease, aureolysin. […] All the samples were then incubated at 37 °C at different incubation times. The reaction was quenched by acidifying with 5 µL of 0.1% formic acid. The samples were analyzed on MS coupled to RP-HPLC.

[12] = Liposome leakage assay (carboxyfluorescein efflux); settings: E. coli lipid liposomes versus POPC/cholesterol liposomes, 45 min, 37 °C
Procedure: The liposome leakage assay was performed as described previously. In brief, the following lipids/lipid mixture was used: Escherichia coli polar lipid extract or 1-palmitoyl-2-oleoyl-sn-glycerol-3-phosphocoline1-palmitoyl-2-oleoyl-sn-glycerol (POPC, both from Avanti Polar Lipids, Alabaster, US-AL) and cholesterol (Sigma Aldrich). The lipid bilayers were formed on round-bottom flask walls by dissolving lipids in chloroform was evaporated under a flow of N2 and the lipid bilayer was placed in a vacuum overnight. Lipid bilayers were re-suspended in an aqueous solution of 100 mM 5(6)-carboxyfluorescein in 10 mM Tris buffer. […] Membrane permeability was measured by monitoring carboxyfluorescein efflux from the liposomes to the external low-concentration environment, resulting in loss of self-quenching and an increased fluorescence signal with excitation and emission wavelengths of 492 and 517 nm, respectively. […] The effect on liposome permeability for each peptide concentration was monitored for 45 min, at which point leakage had largely subsided. […] The EC50 values are (when applicable) calculated using sigmoidal dose–response curves, with the leakage percentage (0–100 constraints) as a function of the peptide concentration (log10), using GraphPad Prism.

[13] = test system: E. coli MG1655 wild type and cyclotides-resistant mutants; test: MIC against cyclotide-resistant strains in buffer conditions; assay type: cell-based, Escherichia coli; set-up: unit not given here
Procedure: as §1, §2

[14] = S. typhimurium phoP LL-37-resistant mutant
[15] = S. typhimurium waaY LL-37-resistant mutant

Compound | MIC ([1]; S. typhimurium WT (DA6192)) | MIC [1, 14] | MIC [1, 15] | MIC [2] [µM] | MIC [3] [µM] | MIC [4] [µM] | MIC [5] [µM] | MIC [6] [µM] | MIC [7] [µM] | MIC [8] [µM] | MIC [9] [µM] | MIC [10] [µM] | time for which the peptide was stable in aureolysin (stable for up to) [11] [h] | bacterial target selectivity relative to LL-37 (factor) [12] [fold] | MIC ([13]; E. coli DA54114 cyclotide-resistant mutant, sodium phosphate buffer with 0.1% TSB, average MIC) | MIC ([13]; E. coli DA57107 cyclotide-resistant mutant, sodium phosphate buffer with 0.1% TSB, average MIC) | MIC ([13]; E. coli WT (MG1655), 20 mM sodium phosphate buffer with 0.1% TSB, 16 to 20 h, 37 °C)
CC[C@H](C)[C@@H]1NC(=O)[C@H](CCCNC(=N)N)NC(=O)[C@@H]2CSSC[C@H](NC(=O)[C@H](CCCCN)NC(=O)[C@H]([C@@H](C)CC)NC(=O)[C@H](CCCNC(=N)N)NC(=O)[C@H](CCCCN)NC(=O)[C@H](C(C)C)NC(=O)[C@H]([C@@H](C)CC)NC(=O)[C@H](CCCNC(=N)N)NC(=O)[C@H](CCCCN)NC(=O)CNC(=O)CNC(=O)[C@H](C)NC(=O)CNC(=O)[C@H](CCCNC(=N)N)NC(=O)[C@H](CC(C)C)NC(=O)[C@H](Cc3ccccc3)NC(=O)[C@H](C)NC(=O)[C@H](CCCCN)NC1=O)C(=O)N[C@@H](Cc1ccccc1)C(=O)N[C@@H](CC(C)C)C(=O)N[C@@H](CCCNC(=N)N)C(=O)NCC(=O)N[C@@H](C)C(=O)NCC(=O)NCC(=O)N[C@@H](CCCCN)C(=O)N[C@@H](CCCNC(=N)N)C(=O)N[C@@H]([C@@H](C)CC)C(=O)N[C@@H](C(C)C)C(=O)N2 [cd4-CC] (cyclo(CFLRGAGGKRIVCRIKAFLRGAGGKRIVKRIK); disulfide 1-13) | 1.25 | 1.25 | 2.5 | 5 (≈ 17.5 µg/mL) | >40 | > 40 | 5 (≈ 17.5 µg/mL) | > 40 | 0.625 (≈ 2.19 µg/mL) | – | – | – | – | – | – | – | –
CC[C@H](C)[C@@H]1NC(=O)[C@H](CCCNC(=N)N)NC(=O)[C@@H]2CSSC[C@H](NC(=O)[C@H](CCCCN)NC(=O)[C@H]([C@@H](C)CC)NC(=O)[C@H](CCCNC(=N)N)NC(=O)[C@H](CCCCN)NC(=O)[C@H](C(C)C)NC(=O)[C@H]([C@@H](C)CC)NC(=O)[C@H](CCCNC(=N)N)NC(=O)[C@H](CCCCN)NC(=O)CNC(=O)CNC(=O)[C@@H]3CCCN3C(=O)CNC(=O)[C@H](CCCNC(=N)N)NC(=O)[C@H](CC(C)C)NC(=O)[C@H](Cc3ccccc3)NC(=O)[C@H](C)NC(=O)[C@H](CCCCN)NC1=O)C(=O)N[C@@H](Cc1ccccc1)C(=O)N[C@@H](CC(C)C)C(=O)N[C@@H](CCCNC(=N)N)C(=O)NCC(=O)N1CCC[C@H]1C(=O)NCC(=O)NCC(=O)N[C@@H](CCCCN)C(=O)N[C@@H](CCCNC(=N)N)C(=O)N[C@@H]([C@@H](C)CC)C(=O)N[C@@H](C(C)C)C(=O)N2 [cd4-CCPP] (cyclo(CFLRGPGGKRIVCRIKAFLRGPGGKRIVKRIK); disulfide 1-13) | 2.5 | 1.25 | 1.25 | – | – | > 40 | – | > 40 | – | 0.625 | 0.625 | 0.625 | ≥ 8 | 6 | 0.25 | 0.25 | 0.37
